In US5846755A (priority 1995, dated 1998):

Key:
[1] = target: neutrophil collagenase (recombinant human) (Homo sapiens, UniProt P22894); assay: In vitro assays on recombinant human collagenase; assay type: biochemical
Experimental: Using the same enzymatic determination already described (fluorimetric detection of cleavage of a substrate peptide containing a fluorescent moiety), some of the compounds were tested on neutrophil collagenase, an enzyme described as participating in any kind of inflammatory reaction in mammalian bodies. In this case, the purified enxzyme was also obtained by recombinant means.

[2] = target: enzyme purified from the venom of Crotalus Adamanteus (hemorrhagin) (Crotalus adamanteus, UniProt P34179); assay type: biochemical; conditions: for IC50: read-out: IC50
enzyme purified from the venom of Crotalus Adamanteus (hemorrhagin), sequence (P34179 whole entry, looked up): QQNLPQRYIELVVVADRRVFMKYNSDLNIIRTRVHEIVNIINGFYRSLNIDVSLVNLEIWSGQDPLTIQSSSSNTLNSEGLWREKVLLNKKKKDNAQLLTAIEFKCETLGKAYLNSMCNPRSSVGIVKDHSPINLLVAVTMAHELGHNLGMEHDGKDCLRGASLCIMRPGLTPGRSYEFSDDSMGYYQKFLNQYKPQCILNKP

[3] = system: release of active TNF in human cell culture medium (Jurkat); assay: Release of active TNF from Jurkat cells (ELISA); assay type: cell-based; conditions: 72 hours incubation, stimulated with PMA and ionophore calcium
Experimental: It is well known that TNF plays a fundamental role in certain physiological defense responses but, on the other hand, causes severe damage when it is released into circulation in excessive amounts or for prolonged periods. […] An attempt was, therefore, made to see whether certain compounds selected from among those of the present application and of WO 92/06108 were capable of blocking the release of active TNF in human cell culture medium (Jurkat). The cells were incubated in the presence or in the absence of metalloproteinase inhibitor for 72 hours; the release of TNF was then stimulated using activators (PMA and ionophore calcium), and the Factor was dosed into the culture medium using the ELISA test (Genzyme).

[4] = system: blood cells that migrate to the inflamed site (lymphocytes, neutrophils, eosinophils, macrophages); assay: Hypereosinophilia induced in rats by Sephadex G-200 resin; assay type: in vivo; conditions: hypereosinophilia induced by Sephadex G-200 resin, result in words
Experimental: As the metalloproteinases produced by the cells of mammals are of fundamental importance to allow the cells to migrate from one tissue to another within the organism, Compounds 9, 18, 25 and 31 of the present invention, together with the compounds Z--Pro--Leu--Cyt and FUR--Leu--Cyt (Examples 1 and 8, respectively, of WO 92/06018) were tested on hypereosinophilia induced in rats by Sephadex G-200 resin.

[5] = target: T1, recombinant human gelatinase A (Homo sapiens, UniProt P08253); assay: In vitro effects on recombinant human gelatinase A; assay type: biochemical
T1 construct: purchased Strangeways Laboratories, Cambridge, UK
T1 sequence (P08253 110-660): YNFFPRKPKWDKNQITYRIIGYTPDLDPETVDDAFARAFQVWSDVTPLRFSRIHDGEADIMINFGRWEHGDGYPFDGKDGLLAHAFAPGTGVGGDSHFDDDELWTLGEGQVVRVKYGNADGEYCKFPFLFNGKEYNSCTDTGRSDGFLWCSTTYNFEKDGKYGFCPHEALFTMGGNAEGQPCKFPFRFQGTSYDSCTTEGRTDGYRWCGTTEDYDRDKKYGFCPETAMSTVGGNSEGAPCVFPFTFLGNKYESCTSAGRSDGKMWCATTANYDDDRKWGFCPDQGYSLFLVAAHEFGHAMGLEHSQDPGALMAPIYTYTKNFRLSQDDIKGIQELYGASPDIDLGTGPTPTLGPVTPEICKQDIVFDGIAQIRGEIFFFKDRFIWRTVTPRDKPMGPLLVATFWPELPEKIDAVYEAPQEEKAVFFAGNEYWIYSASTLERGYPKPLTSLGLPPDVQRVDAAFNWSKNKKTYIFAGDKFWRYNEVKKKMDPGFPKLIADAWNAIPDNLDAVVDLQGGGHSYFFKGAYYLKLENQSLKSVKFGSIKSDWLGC
From the text: Assays on human gelatinase A, an enzyme released in high concentration by any kind of tumor cells during the process of metastatization, and recognized also as a product of stimulated cells in many pathological processes, have been performed using the protein obtained by recombinant biotechnology (Strangeways Laboratories, Cambridge, UK). The enzymatic activity has been followed over time, measuring the amount of fluorescent substrate cleaved by the enzyme, in the presence or absence of synthetic compounds (Perkin Elmer L50 B fluorimeter).

[6] = target: T2, recombinant human gelatinase B (Homo sapiens, UniProt P14780); assay: In vitro effects on recombinant human gelatinase B; assay type: biochemical
T2 construct: purchased Stangeways Laboratories, Cambridge, UK (so in the source)
T2 sequence (P14780 94-707): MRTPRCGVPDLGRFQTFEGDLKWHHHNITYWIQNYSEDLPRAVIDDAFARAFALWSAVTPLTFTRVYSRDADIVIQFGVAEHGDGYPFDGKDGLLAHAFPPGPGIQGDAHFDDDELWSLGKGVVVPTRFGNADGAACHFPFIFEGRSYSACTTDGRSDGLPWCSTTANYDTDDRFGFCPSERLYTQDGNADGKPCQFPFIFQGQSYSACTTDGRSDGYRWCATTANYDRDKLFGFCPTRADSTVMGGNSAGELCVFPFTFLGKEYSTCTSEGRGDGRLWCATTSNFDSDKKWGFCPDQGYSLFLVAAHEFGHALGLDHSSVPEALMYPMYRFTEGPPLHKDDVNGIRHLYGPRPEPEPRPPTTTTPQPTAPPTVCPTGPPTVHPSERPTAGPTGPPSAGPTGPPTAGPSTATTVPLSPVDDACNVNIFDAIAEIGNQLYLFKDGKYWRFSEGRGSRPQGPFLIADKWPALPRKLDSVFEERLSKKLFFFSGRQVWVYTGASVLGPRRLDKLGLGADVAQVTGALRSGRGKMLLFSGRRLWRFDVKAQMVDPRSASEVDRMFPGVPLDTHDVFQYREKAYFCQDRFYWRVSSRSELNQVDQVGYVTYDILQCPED
Experimental: Assays on human gelatinase B, another enzyme released by tumor cells, were performed using also, in this case, the protein obtained by recombinant biotechnology Stangeways Laboratories, Cambridge, UK). As usual, the enzymatic activity was followed over time, measuring the amount of fluorescent substrate cleaved by the enzyme, in the presence or absence of synthetic compounds (Perkin Elmer L50 B fluorimeter).

[7] = system: hemorrhages and lethal results induced by snake venom; assay: Inhibition of hemorrhages and lethality induced by snake venom in mice; assay type: in vivo
[8] = Resistance to proteolytic activity in stomach juices (rat stomach homogenate, HPLC); conditions: 37° C.
Experimental: To check if the compounds of the present invention are resistant to proteolytic activity in stomach juices and, therefore, could be administered orally, the stomachs of fasting rats were homogenized in physiological solutions (1:1). 300 microliters of solutions of the compounds (1 mg/ml of saline) were incubated with 0.5 ml of stomach homogenates (37° C.).

[9] = system: human melanoma cell line VMM-5; assay: Matrigel-based invasion assay with human melanoma cells; assay type: cell-based; conditions: Concentration 500 micro M, VMM-5 cells, 20 hours
From the text: In order to obtain information about the possible interference of the synthesized compounds on the ability of tumor cells to migrate through the body (metastatization), the human melanoma cell line VMM-5 was used in the matrigel-based invasion assay, in which basal membrane matrigel (Becton Dickinson) and tissue culture inserts with 8 microns pore size in 24 well tissue culture plates were used as Boyden chambers. The chambers were coated with diluted matrigel and allowed to dry overnight; they were then reconstituted with serum free medium, and melanoma cells (4,000,000/ml) were dispensed in each insert. In the lower chambers, a chemoattractant was included. The chambers were finally placed in a humidified CO2 incubator at 37° C., and incubated for 20 hours. The inserts were dried and the cells on the upper surface removed. The polycarbonate filters were fixed with methanol, stained with hematoxylin and eosin, and counted with a microscope. Inhibition of migration due to compounds has been expressed as a percentage of the total number of migrated cells in the control chambers containing only the buffer in which the compounds were dissolved.

[10] = target: metalloproteinase purified from snake venom, Bothrops Atrox; assay: Inhibition of metalloproteinase purified from Bothrops Atrox venom; assay type: biochemical; conditions: Table 5; unit M
[11] = target: metalloproteinase purified from snake venom, Bothrops Jararaca; assay: Inhibition of metalloproteinase purified from Bothrops Jararaca venom; assay type: biochemical; conditions: Table 5; unit M
[12] = target: metalloproteinase purified from snake venom, Echis Carinatus; assay: Inhibition of metalloproteinase purified from Echis Carinatus venom; assay type: biochemical; conditions: Table 5; unit M
[13] = system: microhemorrhages induced by histamine; assay: Histamine-induced microhemorrhages (capillary permeability) in hamsters; assay type: in vivo
[14] = system: TNF release from another strain of human cells in culture (clone T); assay: TNF release from human cells in culture (clone T); assay type: cell-based

neutrophil collagenase (recombinant human), sequence (P22894 101-467): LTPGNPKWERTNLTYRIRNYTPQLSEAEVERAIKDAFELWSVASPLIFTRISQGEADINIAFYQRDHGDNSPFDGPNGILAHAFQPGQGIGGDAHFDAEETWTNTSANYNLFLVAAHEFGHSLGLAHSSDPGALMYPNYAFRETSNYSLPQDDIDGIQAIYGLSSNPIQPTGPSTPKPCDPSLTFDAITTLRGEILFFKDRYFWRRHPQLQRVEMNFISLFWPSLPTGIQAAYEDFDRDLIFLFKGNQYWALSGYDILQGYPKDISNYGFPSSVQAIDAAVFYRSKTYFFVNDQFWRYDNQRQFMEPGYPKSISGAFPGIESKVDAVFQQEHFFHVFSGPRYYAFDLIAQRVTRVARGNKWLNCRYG

## 4-MBZ--(L)--Trp--(S)--Cyt--OH [Compound 25]
[1]; Concentration 5.2 × 10^-5 M
  % Inhibition: 23%
[2]
  IC50: 54 nM
[3]
  IC50 of inhibition of TNF release by cells: around 0.7 mcg/ml
[4]
  Effect on number of blood cells that migrate to the inflamed site: interfered with the number of blood cells that migrate to the inflamed site

## CC(C)C[C@H](NC(=O)c1ccco1)C(=O)N[C@@H](Cc1c[nH]c2ccccc12)C(=O)O [2-FUR--Leu--Trp]
[5]; Concentration 1.0 × 10^-7 M
  % Inhibition: 41%
[1]; Concentration 2.4 × 10^-5 M
  % Inhibition: 12%
[2]
  In vitro inhibition of the metalloproteinase purified from the venom of Crotalus Adamanteus: excellent in vitro inhibitor
[6]; Concentration 1.0 × 10^-5 M
  % Inhibition: 22%
[7]; dose of 33 mcg/mouse, even when administered after the venom (up to 30 minutes)
  Protection of mice from death by injection of the venom: capable of protecting the mice from death
[7]; mice, compound incubated with the hemorrhagic factors
  Neutralizing the toxic effects of hemorrhagic factors of various snake venom: capable of neutralizing the toxic effects thereof

## CC(C)C[C@H](NC(=O)CSc1ccncc1)C(=O)N1Cc2[nH]c3ccccc3c2C[C@H]1C(=O)O [Compound 3, 4-PTA--(L)--Leu--(S)--Cyt--OH]
[8]
  Residue after 60 Minutes: 100%
  Residue after 120 Minutes: > 95%
[9]
  % Inhibition of Invasion: 69%
[2]
  IC50: 360 nM

## CC(C)C[C@H](NC(=O)c1ccccn1)C(=O)N1Cc2[nH]c3ccccc3c2C[C@H]1C(=O)O [Compound 9, PIC--(L)--Leu--(S)--Cyt--OH]
[9]
  % Inhibition of Invasion: 94%
[2]
  IC50: 27 nM
[6]; Concentration 1.1 × 10^-5 M
  % Inhibition: 20%
[3]
  IC50 of inhibition of TNF release by cells: around 8 mcg/ml
[4]
  Effect on number of blood cells that migrate to the inflamed site: interfered with the number of blood cells that migrate to the inflamed site

## O=C(N[C@@H](CC1CCCCC1)C(=O)N1Cc2[nH]c3ccccc3c2C[C@H]1C(=O)O)c1ccco1 [Compound 10, 2-FUR--(L)--Cha--(S)--Cyt--OH]
[1]; Concentration 2.1 × 10^-5 M
  % Inhibition: 51%
[8]
  Residue after 60 Minutes: 100%
  Residue after 120 Minutes: > 95%
[9]
  % Inhibition of Invasion: 99%
[2]
  IC50: 25 nM
[6]; Concentration 1.1 × 10^-5 M
  % Inhibition: 32%
[3]
  IC50 of inhibition of TNF release by cells: around 200 mcg/ml

## CC(C)C[C@H](NC(=O)c1cc2ccccc2o1)C(=O)N1Cc2[nH]c3ccccc3c2C[C@H]1C(=O)O [Compound 15, 2-BZF--(L)--Leu--(S)--Cyt--OH]
[10]
  IC50: 8200 nM
[2]
  IC50: 40 nM
[11]
  IC50: 14000 nM
[12]
  IC50: 2000 nM

## CC(C)C[C@H](NC(=O)c1cnccn1)C(=O)N1Cc2[nH]c3ccccc3c2C[C@H]1C(=O)O [Compound 18, 2-PZC--(L)--Leu--(S)--Cyt--OH]
[10]
  IC50: 5200 nM
[2]
  IC50: 210 nM
[11]
  IC50: 8400 nM
[4]
  Effect on number of blood cells that migrate to the inflamed site: interfered with the number of blood cells that migrate to the inflamed site
[12]
  IC50: 7000 nM

## Cc1ccc(C(=O)N[C@@H](CC(C)C)C(=O)N2Cc3[nH]c4ccccc4c3C[C@H]2C(=O)O)cn1 [Compound 22, 6-MNC--(L)--Leu--(S)--Cyt--OH]
[5]; Concentration 8.0 × 10^-7 M
  % Inhibition: 47%
[10]
  IC50: 3200 nM
[2]
  IC50: 110 nM
[11]
  IC50: 21000 nM
[12]
  IC50: 14000 nM

## COc1ccc(C(=O)N[C@@H](CC(C)C)C(=O)N2Cc3[nH]c4ccccc4c3C[C@H]2C(=O)O)c(OC)c1 [Compound 24, 2,4-Dimethoxybenzoyl--(L)--Leu--(S)--Cyt--OH]
[1]; Concentration 2.0 × 10^-5 M
  % Inhibition: 19%
[9]
  % Inhibition of Invasion: 100%
[2]
  IC50: 98 nM
[6]; Concentration 1.0 × 10^-5 M
  % Inhibition: 48%

## FUR--Leu--Cyt
[9]
  % Inhibition of Invasion: 69%
[4]
  Effect on number of blood cells that migrate to the inflamed site: interfered with the number of blood cells that migrate to the inflamed site

## MePro--Leu--Cyt
[9]
  % Inhibition of Invasion: 40%
[6]; Concentration 1.1 × 10^-5 M
  % Inhibition: 37%

## Z--Pro--Leu--Cyt
[13]; administered orally
  Dose capable of blocking 50% of effects: around 50 mcg/Kg
[13]; injected intravenously
  Dose capable of blocking 50% of effects: around 50 mcg/Kg
[13]; result in words
  Blocking microhemorrhages induced by histamine: extremely powerful in blocking microhemorrhages induced by histamine
[5]; Concentration 1.8 × 10^-7 M
  % Inhibition: 64%
[1]; Concentration 1.8 × 10^-5 M
  % Inhibition: 23%
[9]
  % Inhibition of Invasion: 70%
[6]; Concentration 9.0 × 10^-6 M
  % Inhibition: 32%
[14]
  IC50 of inhibition of TNF release: lower than 1 mcg/ml
[3]
  IC50 of inhibition of TNF release by cells: around 5 mcg/ml
[4]
  Effect on number of blood cells that migrate to the inflamed site: interfered with the number of blood cells that migrate to the inflamed site
